# Data published in patent publication US5567692A, “9-[(substituted glycyl) amido)]-6-demethyl-6-deoxytetracyclines” (priority 1995, dated 1996).
# Counter-ions that a name gives are not always drawn. Like-named read-outs stand apart in the source and are kept apart here.
# How the values were obtained:
# [1] = system: E. coli UBMS 88-1 Tet B; assay: microbe, parasite or virus in culture; assay type: cell-based; conditions: Escherichia coli, UBMS881TETB, 18 h
# [2] = system: E. coli J3272 Tet sens; assay: MIC, agar dilution; assay type: cell-based; conditions: Escherichia coli, J3272TETSENS, 18 h
# [3] = system: E. coli PRP1 Tet A; assay: microbe, parasite or virus in culture; assay type: cell-based
# [4] = system: E. coli MC 4100 TNIOC Tet B; assay: microbe, parasite or virus in culture; assay type: cell-based; conditions: Escherichia coli, 18 h
# [5] = system: E. coli J3272 Tet C; assay: microbe, parasite or virus in culture; assay type: cell-based
# [6] = system: E. coli UBMS 89-1 Tet M; assay: microbe, parasite or virus in culture; assay type: cell-based; conditions: Escherichia coli, UBMS891TETM, 18 h
# [7] = system: E. coli UBMS 89-2 Tet sens.; assay: MIC, agar dilution; assay type: cell-based; conditions: Escherichia coli, 18 h
# [8] = system: E. coli J2175; assay: MIC, agar dilution; assay type: cell-based; conditions: Escherichia coli, 18 h, read-out: MIC
# [9] = system: E. coli UBMS 90-4 Tet M; assay: microbe, parasite or virus in culture; assay type: cell-based; conditions: Escherichia coli, UBMS904TETM, 18 h
# [10] = system: E. coli UBMS 90-5; assay: microbe, parasite or virus in culture; assay type: cell-based; conditions: E. coli UBMS 90-5
# [11] = system: E. coli #311 (MP); assay: MIC, agar dilution; assay type: cell-based
# [12] = system: E. coli ATCC 25922; assay: MIC, agar dilution; assay type: cell-based; conditions: Escherichia coli, ATCC25922, 18 h
# [13] = system: S. marcescens FPOR 8733; assay: MIC, agar dilution; assay type: cell-based; conditions: Serratia marcescens, FPOR8733, 18 h, read-out: MIC
# [14] = system: X. maltophilia NEMC 87210; assay: MIC, agar dilution; assay type: cell-based; conditions: Stenotrophomonas maltophilia, NEMC87210, 18 h
# [15] = system: Ps. aeruginosa ATCC 27853; assay: MIC, agar dilution; assay type: cell-based
# [16] = system: S. aureus NEMC 8769; assay: MIC, agar dilution; assay type: cell-based; conditions: Staphylococcus aureus, NEMC8769, 18 h
# [17] = system: S. aureus UBMS 88-7 Tet K; assay: microbe, parasite or virus in culture; assay type: cell-based; conditions: Staphylococcus aureus, UBMS887TETK, 18 h
# [18] = system: S. aureus UBMS 90-1 Tet M; assay: microbe, parasite or virus in culture; assay type: cell-based; conditions: Staphylococcus aureus, UBMS901TETM, 18 h
# [19] = system: S. aureus UBMS 90-3; assay: MIC, agar dilution; assay type: cell-based; conditions: Staphylococcus aureus, UBMS903, 18 h
# [20] = system: S. aureus IVES 2943; assay: MIC, agar dilution; assay type: cell-based; conditions: Staphylococcus aureus, IVES2943, 18 h
# [21] = system: S. aureus ROSE (MP); assay: MIC, agar dilution; assay type: cell-based; conditions: Staphylococcus aureus, 18 h
# [22] = system: S. aureus IVES 1983; assay: MIC, agar dilution; assay type: cell-based; conditions: Staphylococcus aureus, IVES1983, 18 h
# [23] = system: S. aureus ATCC 29213; assay: MIC, agar dilution; assay type: cell-based; conditions: Staphylococcus aureus, ATCC29213, 18 h, S. aureus ATCC 29213
# [24] = system: S. hemolyticus AVHAH 88-3; assay: MIC, agar dilution; assay type: cell-based; conditions: Streptococcus pyogenes, AVHAH883, 18 h
# [25] = system: Staphylococcus aureus strain Smith (tetracycline sensitive); assay: Acute lethal infection in mice, S. aureus Smith; assay type: in vivo; conditions: for ED50: Staphylococcus aureus, 168 h, mice, S. aureus Smith (Sens), 7 day survival, read-out: ED50; for in vivo activity (in words): tested intravenously against the minocycline sensitive organism S. aureus Smith
# [26] = system: E. coli MC 4100 Tet sens.; assay: MIC, agar dilution; assay type: cell-based; conditions: Escherichia coli, 18 h
# [27] = system: E. coli BAJ9003 IMP MUT; assay: microbe, parasite or virus in culture; assay type: cell-based; conditions: Escherichia coli, BAJ9003IMPMUT, 18 h
# [28] = system: E. coli J3272 Tet D; assay: microbe, parasite or virus in culture; assay type: cell-based; conditions: Escherichia coli, J3272TETD, 18 h
# [29] = system: S. aureus UBMS 88-4; assay: MIC, agar dilution; assay type: cell-based; conditions: Staphylococcus aureus, UBMS884, 18 h
# [30] = system: S. aureus UBMS 88-5 Tet M; assay: microbe, parasite or virus in culture; assay type: cell-based; conditions: Staphylococcus aureus, UBMS885TETM, 18 h
# [31] = system: S. aureus UBMS 90-2 Tet M; assay: microbe, parasite or virus in culture; assay type: cell-based; conditions: Staphylococcus aureus, UBMS902TETM, 18 h
# [32] = system: S. aureus SMITH (MP); assay: MIC, agar dilution; assay type: cell-based; conditions: Staphylococcus aureus, 18 h
# [33] = system: Enterococcus 12201; assay: MIC, agar dilution; assay type: cell-based; conditions: Enterococcus, 12201, 18 h
# [34] = system: E. faecalis ATCC 29212; assay: MIC, agar dilution; assay type: cell-based; conditions: Enterococcus faecalis, ATCC29212, 18 h
# [35] = Escherichia coli, PRP1TETA, 18 h
# [36] = Escherichia coli, J3272TETC, 18 h
# [37] = Escherichia coli, UBMS905, 18 h, read-out: MIC
Structure (SMILES),MIC [1] [µg/mL],MIC [4] [µg/mL],MIC [6] [µg/mL],MIC [7] [µg/mL],MIC [8] [µg/mL],MIC [9] [µg/mL],MIC [12] [µg/mL],MIC [13] [µg/mL],MIC [16] [µg/mL],MIC [17] [µg/mL],MIC [18] [µg/mL],MIC [21] [µg/mL],MIC [22] [µg/mL],MIC [23] [µg/mL],"ED50 ([25]; iv, Intraveneous) [mg/kg]","ED50 ([25]; po, Oral) [mg/kg]",in vivo activity (in words) [25],MIC [26] [µg/mL],"MIC [3, 35] [µg/mL]","MIC [5, 36] [µg/mL]",also measured
"CN(C)CC(=O)Nc1ccc2c(c1O)C(=O)C1=C(O)[C@]3(O)C(=O)C(C(N)=O)=C(O)[C@@H](N(C)C)C3CC1C2 (stereo partly drawn) [AA, [4S-(4alpha,12aalpha)]-4-(Dimethylamino)-9-[[(dimethylamino)acetyl]amino]-1,4,4a,5,5a,6,11,12a-octahydro-3,10,12,12a-tetrahydroxy-1,11-dioxo-2-naphthacenecarboxamide disulfate]",0.25,0.25,0.25,0.25,0.25,0.25,0.25,4,0.03,1,0.25,4,2,< 0.015,0.5 to 1,> 16,very good in vivo activity,,,,"MIC [2]: 0.25 µg/mL; MIC [3]: 2 µg/mL; MIC [5]: 1 µg/mL; MIC [10]: 0.25 µg/mL; MIC ([11]; E. coli #311 (MP)): 0.50 µg/mL; MIC ([14]; X. maltophilia NEMC 87210, read-out: MIC): 2 µg/mL; MIC ([15]; Ps. aeruginosa ATCC 27853): 16 µg/mL; MIC ([19]; S. aureus UBMS 90-3): 0.06 µg/mL; MIC ([20]; S. aureus IVES 2943, read-out: MIC): 1 µg/mL; MIC ([24]; S. hemolyticus AVHAH 88-3, read-out: MIC): 0.5 µg/mL"
"CCCCCCNCC(=O)Nc1ccc2c(c1O)C(=O)C1=C(O)[C@]3(O)C(=O)C(C(N)=O)=C(O)[C@@H](N(C)C)C3CC1C2 (stereo partly drawn) [G, [4S-(4alpha,12aalpha)]-4-(Dimethylamino)-9-[[(hexylamino)acetyl]amino]-1,4,4a,5,5a,6,11,12a-octahydro-3,10,12,12a-tetrahydroxy-1,11-dioxo-2-naphthacenecarboxamide dihydrochloride]",1,1,0.25,1,1,0.5,1,8,,1,1,,1,0.5,> 4,> 16,very good in vivo activity,0.12,1,1,"MIC [27]: 0.12 µg/mL; MIC [10, 37]: 1 µg/mL; MIC ([11]; Escherichia coli, 18 h): 1 µg/mL; MIC [28]: 0.5 µg/mL; MIC [14]: 1 µg/mL; MIC ([15]; Pseudomonas aeruginosa, ATCC27853, 18 h, Ps. aeruginosa ATCC 27853, read-out: MIC): 32 µg/mL; MIC ([16]; read-out: MIC): 0.12 µg/mL; MIC [29]: 0.25 µg/mL; MIC [30]: 0.5 µg/mL; MIC [19]: 0.25 µg/mL; MIC [31]: 0.25 µg/mL; MIC [20]: 2 µg/mL; MIC ([21]; read-out: MIC): 4 µg/mL; MIC [32]: 0.25 µg/mL; MIC [24]: 2 µg/mL; MIC [33]: 0.25 µg/mL; MIC ([34]; E. faecalis ATCC 29212, read-out: MIC): 0.12 µg/mL"
"CN(C)[C@@H]1C(O)=C(C(N)=O)C(=O)[C@@]2(O)C(O)=C3C(=O)c4c(ccc(NC(=O)CNCC5CC5)c4O)CC3CC12 (stereo partly drawn) [Q, [4S-(4alpha,12aalpha)]-9-[[[(Cyclopropylmethyl)amino]acetyl]amino]-4-(dimethylamino)-1,4,4a,5,5a,6,11,12a-octahydro-3,10,12,12a-tetrahydroxy-1,11-dioxo-2-naphthacenecarboxamide dihydrochloride]",0.5,1,0.5,1,1,0.25,0.5,8,0.5,8,0.5,16,4,0.5,,> 16,very good in vivo activity,0.25,2,0.5,"MIC [27]: 0.25 µg/mL; MIC [10, 37]: 0.5 µg/mL; MIC ([11]; Escherichia coli, 18 h): 1 µg/mL; MIC [28]: 0.25 µg/mL; MIC [14]: 4 µg/mL; MIC ([15]; Pseudomonas aeruginosa, ATCC27853, 18 h): 16 µg/mL; MIC [29]: 0.5 µg/mL; MIC [30]: 0.5 µg/mL; MIC [19]: 0.5 µg/mL; MIC [31]: 0.5 µg/mL; MIC [20]: 8 µg/mL; MIC [32]: 0.5 µg/mL; MIC [24]: 4 µg/mL; MIC [33]: 0.5 µg/mL; MIC [34]: 0.25 µg/mL"
